The test system of data set [1] is HCT-116 tumor xenografts. Description: HCT-116 colon carcinoma xenograft model. The conditions noted are these: 75 mg/kg i.v. 1 time per week (positive control). The format is in vivo, athymic (nu/nu) mice. As to the method: Positive controls are carried out with 5-fluorouracil administered 1 time per week i.v.
Data set [2] concerns MDA-MB-435 breast carcinoma. As to the kind of experiment: Anchorage Dependent Growth Monolayer Assay (ADGMA), MDA-MB-435. The format is cell-based, human. The note with it: 3-day exposure, MTS readout, read-out: IC50 (average±S.D.) MDA-MB-435. How it is done: As indicated above, all of the compounds of formula I, and their corresponding pharmaceutically acceptable acid addition salts, are anti-tumor agents and are, therefore, useful in inhibiting the growth of various lymphomas, sarcomas, carcinomas, myelomas, and leukemia cell lines.
The ADGMA compares the number of viable cells following a 3-day exposure to a test compound relative to a number of cells present at the time the test compound was added. […] The absorbance at 490 nm (A490) of the formazan derivative is proportional to the number of viable cells. The IC50 for a test compound is the concentration of compound required to reduce the final cell number to 50% of the final control cell number. If cell proliferation is inhibited, the assay further defines compounds as cytostatic (cell number after 3-day compound incubation >cell number at time of compound addition) or cytotoxic (cell number after 3-day compound incubation <cell number at time of compound addition).
The MDA-MB-435 breast carcinoma line was obtained from the American Type Culture Collection (ATCC) and used between passages 4-20 following thawing. MDA-MB-435 breast carcinoma was maintained and plated in DME/F12 medium containing 10% fetal bovine serum, 15 mM HEPES (pH=7.4), 100 units/mL penicillin, and 100 μg/mL streptomycin.
Cell lines are trypsinized and counted using a Coulter counter to determine plating densities. Cells are then plated in their respective maintenance media (100 μL/well) in 96 well plates at the following densities: MDA-MB-435, 3,000 cells/well; A549 and HCT-116, 700 cells/well; are PC-3, 2500 cells/well. The number of cells plates as determined in preliminary experiments, results in cell densities of 75-90% of confluency by 4 days after plating. Initial cell densities, assayed one day after plating, are roughly 0.15-0.20 absorbance units greater than the media blank. Ninety-six well plates are seeded on day 0 and the test compounds are added on day 1. A control plate is created for each cell line that receives media only in row A and cells in row B. One day following plating, test compounds are added (in a final volume of 100 μL) to the test plates. Control plates receive 10 μL MTS mixture (prepared fresh on day of addition to cell plates at a ratio of 10 μL of a 0.92 mg/mL solution of PMS to a 190 μL of a 2 mg/mL solution of MTS) and 100 μL media. A490 of control plates is read 4 h after MTS addition to determine initial cell density values for each cell line. Three days after addition of test compound, 10 μL/well of MTS mixture is added to the test plates and A490 is read 4 h later. A490 values for wells containing cells are corrected for media absorbance, then normalized to initial density readings to determine percent net growth. IC50 values are determined from graphs of percent net growth as a function of compound concentration. Percent net growth is calculated as (Cell+Drug A490−Initial A490/Cell+Drug Vehicle A490−Initial A490).

Data set [3] concerns MDA-MB-435 tumor xenografts. Description: MDA-MB-435 breast carcinoma xenograft model. The format is in vivo, athymic (nu/nu) mice. How it is done:
Positive controls are carried out with doxorubicin administered 3 times per week i.v.
The following results were obtained for compounds of Ex.1-Ex.12 tested against MDA-MB-435 tumor xenografts 3×/week for 3 weeks: […]

In data set [4] the test system is A549 tumor xenografts. The source says: Utilizing this model, one can measure the ability of test compounds to inhibit the growth of human tumor xenografts growing subcutaneously (s.c.) in athymic nude mice. The histologic tumor types employed were MDA-MB-435 breast, A549 non-small cell lung, HCT-116 colon and PC-3 prostate carcinomas.
A549 non-small cell lung carcinoma xenograft model: Briefly, 10 million cells were implanted s.c. into the right flank of athymic (nu/nu) mice, and were allowed to grow until a mass of approximately 120 mm^3 was established. The test compounds are administered three times per week intravenously (i.v.) for three weeks in 5% dextrose, 10%DMSO in water. The test compounds are administered in dose-response fashion in order to evaluate and document the full potential range of activity (efficacy and toxicity) for a given compound. Positive controls are carried out with mitomycin C administered 3 times per week intraperitioneally (i.p.).
Toxicity was monitored by recording average group body weights twice weekly, and by daily observation of general health. Efficacy was monitored by taking measurements of tumor length, width, and depth weekly using digital calipers coupled to automated data collectors. Mean tumor volume (MTV) at initiation of therapy was subtracted from final MTV in order to express the actual tumor growth during treatment (ΔMTV). Anti-tumor activity was expressed as %T/C (ΔMTV of treated group÷ΔMTV of control group×100). Regressions were calculated using the formula: (T/T0−1)×100%, where T is the tumor volume for the treatment group at the end of the experiment, and T0 is the tumor volume at the beginning of the experiment. Statistical significance was evaluated using a one-tailed Student's t-test (p<0.05).

The subject of data set [5] is PC-3 tumor xenografts. As to the kind of experiment: PC-3 prostate carcinoma xenograft model. The format is in vivo, athymic (nu/nu) mice. The note with it: 15 mg/kg i.v. daily for the first five days (positive control).
[6] abbreviates: 10 μmol/kg i.v. 3×/week for 3 weeks.
Setting [7] is: 33 μmol/kg i.v. 3×/week for 3 weeks.
Where [8] appears, read: 2 mg/kg i.p. 3 times per week (positive control).

Like-named read-outs stand apart in the source and are kept apart here. Marks after values point to notes of the source that are not given here.

With `O=c1[nH]cc(F)c(=O)[nH]1` [5-fluorouracil, reference compound], in data set [1], the “% T/C” value is reported as 16* %, the Dead/Total is listed as 0/8 and the “Δ MTV” value is recorded as 65 mm^3.
As a reminder, the IC50 is the concentration at which inhibition is half-maximal. As for `CO[C@@H](C(=O)N[C@H]1CC[C@@H](OC(=O)C2CCCCCC2)CNC1=O)[C@H](O)[C@@H](O)[C@H](O)/C=C/C(C)(C)C` [Ex. 3, (2R, 3R, 4S, 5R, 6E)-3,4,5-Trihydroxy-2-methoxy-8,8-dimethyl-N-[(3S, 6R)-hexahydro-2-oxo-6(cylohpetylcarbonyl)oxy-2H-azepin-3-yl]non-6-enamide], in data set [2], the IC50 amounted to 32 ± 14 nM. The “% T/C” value in data set [3] (setting [6]) is 39* %; in data set [3] (setting [7]) it was 28* %. Besides, the Dead/Total in data set [3] (setting [6]) and in data set [3] (setting [7]) was 0/8 in each case.
With `CO[C@@H](C(=O)N[C@H]1CC[C@@H](OC(=O)CC2CCCCC2)CNC1=O)[C@H](O)[C@@H](O)[C@H](O)/C=C/C(C)(C)C` [Ex. 6, (2R, 3R, 4S, 5R, 6E)-3,4,5-Trihydroxy-2-methoxy-8,8-dimethyl-N-[(3S, 6R)-hexahydro-2-oxo-6-(cyclohexylmethylcarbonyl)oxy-2H-azepin-3-yl]non-6-enamide], in data set [3] (setting [6]), the “% T/C” value is reported as 47* % and the Dead/Total is 0/8. Further, in data set [3] (setting [7]), the “% T/C” value was 34* % and the Dead/Total was 0/8.
Turning to `CO[C@@H](C(=O)N[C@H]1CC[C@@H](OC(=O)Cc2ccccc2)CNC1=O)[C@H](O)[C@@H](O)[C@H](O)/C=C/C(C)(C)C` [Ex. 7, (2R, 3R, 4S, 5R, 6E)-3,4,5-Trihydroxy-2-methoxy-8,8-dimethyl-N-[(3S, 6R)-hexahydro-2-oxo-6-(1-oxo-2-phenylethoxy)-2H-azepin-3-yl]non-6-enamide.], in data set [2], the IC50 was 262 ± 70 nM. In addition, in data set [3] (setting [6]), the “% T/C” value is listed as 72% and the Dead/Total is on record as 0/8. For the same compound, in data set [3] (setting [7]), the “% T/C” value is 43* % and the Dead/Total is 0/8.
For the compound `CO[C@@H](C(=O)N[C@H]1CC[C@@H](OC(=O)Cc2ccc(Cl)c(Cl)c2)CNC1=O)[C@H](O)[C@@H](O)[C@H](O)/C=C/C(C)(C)C` [Ex. 8, (2R, 3R, 4S, 5R, 6E)-3,4,5-Trihydroxy-2-methoxy-8,8-dimethyl-N-[(3S, 6R)-hexahydro-2-oxo-6-(1-oxo-2-[3,4-dichlorophenyl]ethoxy)-2H-azepin-3-yl]non-6-enamide], in data set [3] (setting [6]), the “% T/C” value is given as 62% and the Dead/Total is listed as 0/8. Besides, in data set [3] (setting [7]), the “% T/C” value stood at 67% and the Dead/Total is on record as 0/8.
As to `COc1ccc(CC(=O)O[C@@H]2CC[C@H](NC(=O)[C@H](OC)[C@H](O)[C@@H](O)[C@H](O)/C=C/C(C)(C)C)C(=O)NC2)cc1` [Ex. 9, (2R, 3R, 4S, 5R, 6E)-3,4,5-Trihydroxy-2-methoxy-8,8-dimethyl-N-[(3S, 6R)-hexahydro-2-oxo-6-(1-oxo-2-[4-methoxyphenyl]ethoxy)-2H-azepin-3-yl]non-6-enamide], in data set [3] (setting [6]), the “% T/C” value turned out to be 76% and the Dead/Total is listed as 0/8. For the same compound, in data set [3] (setting [7]), the “% T/C” value is 48* % and the Dead/Total is reported as 0/8.
Turning to `CCCCCCCCCCOc1ccc(C(=O)O[C@@H]2CC[C@H](NC(=O)[C@H](OC)[C@H](O)[C@@H](O)[C@H](O)/C=C/C(C)(C)C)C(=O)NC2)cc1` [Ex. 10, (2R, 3R, 4S, 5R, 6E)-3,4,5-Trihydroxy-2-methoxy-8,8-dimethyl-N-[(3S, 6R)-hexahydro-2-oxo-6-([4-n-decyloxyphenyl]carbonyl)oxy-2H-azepin-3-yl]non-6-enamide], the 50% inhibitory concentration (IC50) in data set [2] (Homo sapiens, MDA-MB-435, 72 h) turned out to be 6 ± 4 nM. Also, in data set [3] (setting [6]), the “% T/C” value is 64* % and the Dead/Total is on record as 0/8. In data set [3] (setting [7]), the “% T/C” value is 2* %, the Dead/Total was 0/8 and the “Δ MTV” value is given as 4 mm^3.
Turning to `CO[C@@H](C(=O)N[C@H]1CC[C@@H](OC(=O)/C=C/c2ccccc2)CNC1=O)[C@H](O)[C@@H](O)[C@H](O)/C=C/C(C)(C)C` [Ex. 11, (2R, 3R, 4S, 5R, 6E)-3,4,5-Trihydroxy-2-methoxy-8,8-dimethyl-N-[(3S, 6R)-hexahydro-2-oxo-6-(1-oxo-3-phenyl-2-propenoxy)-2H-azepin-3-yl]non-6-enamide], the Dead/Total in data set [3] (setting [6]) and in data set [3] (setting [7]) was 0/8 in each case. Also, the “Δ MTV” value in data set [3] (setting [6]) is reported as 135 mm^3; in data set [3] (setting [7]), 76 mm^3.
Regarding `CCCCCCCCCCc1ccc(C(=O)O[C@@H]2CC[C@H](NC(=O)[C@H](OC)[C@H](O)[C@@H](O)[C@H](O)/C=C/C(C)(C)C)C(=O)NC2)cc1` [Ex. 12, (2R, 3R, 4S, 5R, 6E)-3,4,5-Trihydroxy-2-methoxy-8,8-dimethyl-N-[(3S, 6R)-hexahydro-2-oxo-6-([4-n-decylphenyl]carbonyl)oxy-2H-azepin-3-yl]non-6-enamide], in data set [2] (Homo sapiens, MDA-MB-435, 72 h), the IC50 was 27 ± 37 nM. For the same compound, in data set [3] (setting [6]), the “% T/C” value was found to be 52% and the Dead/Total is on record as 0/8. For the same compound, in data set [3] (setting [7]), the “% T/C” value is given as 7* % and the Dead/Total was 0/8.
Turning to `CO[C@@H](C(=O)N[C@H]1CC[C@@H](OC(=O)Cc2c[nH]c3ccccc23)CNC1=O)[C@H](O)[C@@H](O)[C@H](O)/C=C/C(C)(C)C` [Ex. 14, (2R, 3R, 4S, 5R, 6E)-3,4,5-Trihydroxy-2-methoxy-8,8-dimethyl-N-[(3S, 6R)-hexahydro-2-oxo-6-(1-oxo-3-[3-indolyl]ethoxy)-2H-azepin-3-yl]non-6-enamide], the IC50 in data set [2] was determined as 1240 ± 196 nM.
For the compound `CO[C@@]12[C@H](COC(N)=O)C3=C(C(=O)C(C)=C(N)C3=O)N1C[C@@H]1N[C@@H]12` [Mitomycin C, reference compound], in data set [4] (setting [8]), the “% T/C” value is 20* % and the “Δ MTV” value is 15 mm^3. Besides, the Dead/Total in data set [4] (mouse, in vivo) is recorded as 0/8.
Take `CC(=O)O[C@H]1C(=O)[C@@]2(C)[C@H]([C@H](OC(=O)c3ccccc3)[C@]3(O)C[C@H](OC(=O)[C@H](O)[C@@H](NC(=O)c4ccccc4)c4ccccc4)C(C)=C1C3(C)C)[C@]1(OC(C)=O)CO[C@@H]1C[C@@H]2O` [Paclitaxel, reference compound]: in data set [5], the “% regression” value was found to be 100 regression* %, the Dead/Total was 3/8 and the “Δ MTV” value is −103 mm^3.

(Values after patent US6555533B2, “Use of certain substituted caprolactams in treating tumors” (Novartis AG, priority 1998, dated 2003).)
